The values below are quoted from earlier work in US5929038A, “Pharmaceutical preparations which inhibit hepatitis B virus (HBV) replication” (Choongwae Pharmaceutical Co., Ltd., priority 1992, dated 1999).

Data set [1] deals with toxic Amanita mushrooms' poisoning. Conditions: in vivo; cited from earlier work.
For data set [2], the system named is beagle dogs intoxicated by toxic mushroom extracts. As to conditions: cited from earlier work.

Turning to `OCC1=CC(O)C2C=COC(O[C@@H]3O[C@H](CO)[C@@H](O)[C@H](O)[C@H]3O)C12` (stereo partly drawn) [Aucubin, 1,4,5, 7α-tetrahydro-5-hydroxy-17-(hydroxymethyl)cyclopenta[c]pyran-1-yl-β-D-glucopyranose], the Detoxification activity result in data set [1] is recorded as “detoxifies toxic Amanita mushrooms' poisoning”. For the same compound, the antidotal activity result in data set [2] is on record as “potent antidotal activity”.
